The compounds below were run on MMP-13 (assay: MMP-13 Production Inhibition Test). Settings: Homo sapiens; 30 μmol/L; SW1353 cells stimulated with IL-1β 10 ng/mL; MMP-13 in culture supernatant by ELISA 16 hours after stimulation; read-out: Inhibition rate (%) at 30 μmol/L.
Type: cell-based, human
Method: MMP-13 Production Inhibition Test
6.8×10^3 human cartilage derived cell line SW1353 cells were suspended in 100 μL of Dulbecco modified Eagle's medium supplemented with 10% fetal calf serum, plated on 96-well plates and cultured for 3 days. After the culture medium was changed to Dulbecco modified Eagle's medium containing 0.2% lactalbumin hydrolysate and the cells were cultured for 6 hours, […] were added and then IL-1β was added to obtain the final concentration of 10 ng/mL 1 hour later. 16 hours after the stimulation, supernatant was collected and the amount of MMP-13 in the culture supernatant was determined with an ELISA kit (Amersham). The inhibition rate was calculated from the amount of MMP-13 in the presence of a test compound assuming that the amount of MMP-13 was 100% in the absence of the test compound.

| SMILES | inhibition at 30 µM [%] |
| --- | --- |
| O=C(Nc1cc(-c2ccccc2)ccc1C(=O)O)c1ccccc1 [Example 4, 2-(benzamido)-4-phenylbenzoic acid] | 80 |
| O=C(Nc1cc(-c2cccs2)ccc1C(=O)O)c1ccccc1 [Example 7, 2-(Benzamido)-4-(thiophen-2-yl)benzoic acid] | 91 |
| O=C(Nc1cc(-c2cc3ccccc3o2)ccc1C(=O)O)c1ccccc1 [Example 8, 2-(benzamido)-4-(benzofuran-2-yl)benzoic acid] | 95 |
| O=C(Nc1cc(-c2ccc3c(c2)OCO3)ccc1C(=O)O)c1ccccc1 [Example 11, 2-(benzamido)-4-(benzo[1,3]dioxol-5-yl)benzoic acid] | 92 |
| O=C(Nc1cc(-c2ccc3c(c2)OCCO3)ccc1C(=O)O)c1ccccc1 [Example 15, 2-(Benzamido)-4-(2,3-dihydrobenzo[1,4]dioxin-6-yl)benzoic acid] | 88 |
| O=C(Nc1cc(-c2ccc(F)cc2F)ccc1C(=O)O)c1ccccc1 [Example 19, 2-(benzamido)-4-(2,4-difluorophenyl)benzoic acid] | 94 |
| COc1ccc(-c2ccc(C(=O)O)c(NC(=O)c3ccccc3)c2)cc1 [Example 22, 2-(Benzamido)-4-(4-methoxyphenyl)benzoic acid] | 81 |
| O=C(Nc1cc(/C=C/c2ccccc2)ccc1C(=O)O)c1ccccc1 [Example 24, 2-(benzamido)-4-((E)-2-phenylvinyl)benzoic acid] | 92 |
| O=C(Nc1cc(CCCCc2ccccc2)ccc1C(=O)O)c1ccccc1 [Example 33, 2-(benzamido)-4-(4-phenylbutyl)benzoic acid] | 97 |
| O=C(Nc1cc(Oc2ccccc2)ccc1C(=O)O)c1ccc2c(c1)OCO2 [Example 80, 2-(Benzo[1,3]dioxole-5-carboxamido)-4-phenoxybenzoic acid] | 92 |
| O=C(Nc1cc(Oc2ccccc2)ccc1C(=O)O)c1ccc2c(c1)OCCO2 [Example 83, 2-(2,3-Dihydrobenzo[1,4]dioxin-6-carboxamido)-4-phenoxybenzoic acid] | 93 |
| O=C(O)c1ccc(Oc2ccccc2)cc1NC(=O)C1CCCCC1 [Example 85, 2-(Cyclohexanecarboxamido)-4-phenoxybenzoic acid] | 60 |
| O=C(O)c1ccc(Oc2ccccc2)cc1NS(=O)(=O)c1ccccc1 [Example 88, 2-(Benzenesulfonamido)-4-phenoxybenzoic acid] | 80 |
| O=C(Nc1cc(Oc2ccccc2)ccc1C(=O)O)c1ccc(F)cc1 [Example 89, 2-(4-Fluorobenzamido)-4-phenoxybenzoic acid] | 94 |
| O=C(C=Cc1ccccc1)Nc1cc(Oc2ccccc2)ccc1C(=O)O [Example 91, 2-(Cinnamamido)-4-phenoxybenzoic acid] | 95 |
| O=C(Nc1cc(Oc2ccccc2)ccc1C(=O)O)c1ccc2occc2c1 [Example 96, 2-(Benzofuran-5-carboxamido)-4-phenoxybenzoic acid] | 96 |
| O=C(Nc1cc(Oc2ccccc2)ccc1C(=O)O)c1nc2ccccc2s1 [Example 97, 2-(Benzothiazole-2-carboxamido)-4-phenoxybenzoic acid] | 97 |
| O=C(Nc1cc(OCc2ccccc2)ccc1C(=O)O)c1ccccc1 [Example 99, 2-(benzamido)-4-(benzyloxy)benzoic acid] | 71 |
| O=C(Nc1cc(OC2CCCCC2)ccc1C(=O)O)c1ccccc1 [Example 105, 2-(benzamido)-4-(cyclohexyloxy)benzoic acid] | 64 |
| O=C(Nc1cc(/C=C/c2cc(F)cc(F)c2)ccc1C(=O)O)c1ccccc1 [Example 130, 2-(Benzamido)-4-((E)-2-(3,5-difluorophenyl)vinyl)benzoic acid] | 96 |
| O=C(Nc1cc(/C=C/c2cccc(Cl)c2)ccc1C(=O)O)c1ccccc1 [Example 134, 2-(Benzamido)-4-((E)-2-(3-chlorophenyl)vinyl)benzoic acid] | 99 |
| O=C(Nc1cc(CCc2ccc(OC(F)(F)F)cc2)ccc1C(=O)O)c1ccccc1 [Example 138, 2-(Benzamido)-4-(2-(4-(trifluoromethoxy)phenyl)ethyl)benzoic acid] | 95 |
| O=C(Nc1cc(/C=C/c2ccc(F)cc2F)ccc1C(=O)O)c1ccccc1 [Example 141, 2-(benzamido)-4-((E)-2-(2,4-difluorophenyl)vinyl)benzoic acid] | 95 |
| O=C(Nc1cc(/C=C/c2cccc3nsnc23)ccc1C(=O)O)c1ccccc1 [Example 146, 2-(Benzamido)-4-((E)-2-(2,1,3-benzothiadiazol-4-yl)vinyl)benzoic acid] | 97 |

| SMILES | inhibition at 30 µM [%] |
| --- | --- |
| O=C(Nc1cc(-c2ccc(F)cc2F)ccc1C(=O)O)c1ccc(F)cc1 [Example 150, 4-(2,4-difluorophenyl)-2-(4-fluorobenzamido)benzoic acid] | 96 |
| COc1cccc(/C=C/c2ccc(C(=O)O)c(NC(=O)c3ccc4c(c3)OCO4)c2)c1 [Example 157, 2-(Benzo[1,3]dioxole-5-carboxamido)-4-((E)-2-(3-methoxyphenyl)vinyl)benzoic acid] | 98 |
| O=C(Nc1cc(-c2cccc(Cl)c2)ccc1C(=O)O)c1ccc2c(c1)OCO2 [Example 163, 2-(Benzo[1,3]dioxole-5-carboxamido)-4-(3-chlorophenyl)benzoic acid] | 98 |
| O=C(Nc1cc(-c2ccc(O)cc2)ccc1C(=O)O)c1ccc(C(F)(F)F)cc1 [Example 176, 4-(4-Hydroxyphenyl)-2-(4-(trifluoromethyl)benzamido)benzoic acid] | 98 |
| Cc1cccc(C(=O)Nc2cc(-c3ccc(F)cc3F)ccc2C(=O)O)c1C [Example 189, 4-(2,4-difluorophenyl)-2-(2,3-dimethylbenzamido)benzoic acid] | 96 |
| O=C(Nc1cc(-c2cccc(Cl)c2)ccc1C(=O)O)c1ccc(O)cc1 [Example 196, 4-(3-chlorophenyl)-2-(4-hydroxybenzamido)benzoic acid] | 97 |
| O=C(Nc1cc(-c2ccc(Cl)cc2)ccc1C(=O)O)c1ccccc1 [Example 212, 2-(Benzamido)-4-(4-chlorophenyl)benzoic acid] | 95 |
| O=C(Nc1cc(-c2c(F)cccc2F)ccc1C(=O)O)c1ccccc1 [Example 217, 2-(Benzamido)-4-(2,6-difluorophenyl)benzoic acid] | 68 |
| O=C(Nc1cc(-c2cccc(Cl)c2)ccc1C(=O)O)c1ccccc1 [Example 222, 2-(benzamido)-4-(3-chlorophenyl)benzoic acid] | 98 |
| Cc1cccc(-c2ccc(C(=O)O)c(NC(=O)c3ccccc3)c2)c1C [Example 230, 2-(Benzamido)-4-(2,3-dimethylphenyl)benzoic acid] | 95 |
| O=C(Nc1cc(-c2cccc(OC(F)(F)F)c2)ccc1C(=O)O)c1ccccc1 [Example 234, 2-(Benzamido)-4-(3-(trifluoromethoxy)phenyl)benzoic acid] | 99 |
| O=C(Nc1cc(-c2ccc(O)cc2)ccc1C(=O)O)c1ccccc1 [Example 243, 2-(benzamido)-4-(4-hydroxyphenyl)benzoic acid] | 96 |
| O=C(Nc1cc(-c2c(F)cccc2Cl)ccc1C(=O)O)c1ccccc1 [Example 251, 2-(benzamido)-4-(2-chloro-6-fluorophenyl)benzoic acid] | 83 |
| O=C(O)c1ccc(CCc2ccccc2)cc1NC(=O)c1ccccc1C(F)(F)F [Example 255, 4-Phenethyl-2-(2-(trifluoromethyl)benzamido)benzoic acid] | 91 |
| Cc1ccc(C(=O)Nc2cc(CCc3ccccc3)ccc2C(=O)O)cc1C [Example 261, 2-(3,4-Dimethylbenzamido)-4-phenethylbenzoic acid] | 94 |
| Cc1cccc(C(=O)Nc2cc(CCc3ccccc3)ccc2C(=O)O)c1C [Example 262, 2-(2,3-Dimethylbenzamido)-4-phenethylbenzoic acid] | 93 |
| O=C(Nc1cc(CCc2ccccc2)ccc1C(=O)O)c1ccc(C(F)(F)F)cc1 [Example 264, 4-Phenethyl-2-(4-(trifluoromethyl)benzamido)benzoic acid] | 94 |
| O=C(Nc1cc(CCc2ccccc2)ccc1C(=O)O)c1cncc(-n2cccc2)c1 [Example 276, 4-Phenethyl-2-(5-(1H-pyrrol-1-yl)pyridine-3-carboxamido)benzoic acid] | 86 |
| O=C(Nc1cc(-c2ccccc2)ccc1C(=O)O)c1ccccc1F [Example 282] | 75 |
| O=C(Nc1cc(-c2ccccc2)ccc1C(=O)O)c1cccs1 [Example 301, 4-Phenyl-2-(thiophene-2-carboxamido)benzoic acid] | 80 |
| O=C(Nc1cc(-c2ccccc2)ccc1C(=O)O)c1ccc(Cl)cc1 [Example 316, 2-(4-Chlorobenzamido)-4-phenylbenzoic acid] | 96 |
| O=C(O)c1ccc(-c2ccccc2)cc1NC(=O)c1ccc(C(F)(F)F)cc1C(F)(F)F [Example 318, 4-Phenyl-2-(2,4-bis(trifluoromethyl)benzamido)benzoic acid] | 95 |
| Cc1cccc(C(=O)Nc2cc(Oc3ccccc3)ccc2C(=O)O)c1 [Example 325, 2-(3-Methylbenzamido)-4-phenoxybenzoic acid] | 91 |

Same assay, conditions: SW1353 cells stimulated with IL-1β 10 ng/mL, MMP-13 in culture supernatant by ELISA 16 hours after stimulation

| SMILES | Inhibition rate (%) at 30 μmol/L [%] |
| --- | --- |
| Cc1ccc(-c2ccc(C(=O)O)c(NC(=O)c3ccccc3)c2)cc1 [Example 240] | 94 |

Source: US7999132B2, “Anthranilic acid derivative or salt thereof” (Toyama Chemical Co., Ltd., priority 2004, dated 2011)
